Data as given in patent publication US20090274662A1, “Methods And Kits For The Treatment Of Inflammatory Bowel Disorder Conditions” (priority 2008, published 2009).

Settings: male, human, in vivo
Excerpt: The patient is prescribed a pharmaceutical composition to be taken twice each week. Each unit dose of the pharmaceutical composition comprises 7200 milligrams of delayed-release mesalamine.

Nc1ccc(O)c(C(=O)O)c1 [delayed-release mesalamine, 5-amino-2-hydroxybenzoic acid]
amount of delayed-release mesalamine absorbed into the mucosa and colonic wall: equivalent to that of 2400 milligrams mesalamine taken once-daily
